In ChEMBL document CHEMBL4507300 (2021):

Assays:
[1] = target: Ephrin type-B receptor 6 (Homo sapiens) (UniProt O15197); details: Compound concentration 1000.0 nM
[2] = target: Myosin-IIIb (Homo sapiens) (UniProt Q8WXR4); details: Compound concentration 1000.0 nM
[3] = target: Phosphatidylinositol 4-kinase beta (Homo sapiens) (UniProt Q9UBF8); details: Compound concentration 1000.0 nM
[4] = target: Cyclin-dependent kinase 16 (Homo sapiens) (UniProt Q00536); details: Compound concentration 1000.0 nM
[5] = target: Serine/threonine-protein kinase PAK 3 (Homo sapiens) (UniProt O75914); details: Compound concentration 1000.0 nM
[6] = target: Bone morphogenetic protein receptor type-1B (Homo sapiens) (UniProt O00238); details: Compound concentration 1000.0 nM
[7] = target: Serine/threonine-protein kinase tousled-like 2 (Homo sapiens) (UniProt Q86UE8); details: Compound concentration 1000.0 nM
[8] = target: Receptor tyrosine-protein kinase erbB-3 (Homo sapiens) (UniProt P21860); details: Compound concentration 1000.0 nM
[9] = target: LIM domain kinase 1 (Homo sapiens) (UniProt P53667); details: Compound concentration 1000.0 nM
[10] = target: Serine/threonine-protein kinase NIM1 (Homo sapiens) (UniProt Q8IY84); details: Compound concentration 1000.0 nM
[11] = target: Phosphatidylinositol 4,5-bisphosphate 3-kinase catalytic subunit alpha isoform (Homo sapiens) (UniProt P42336); details: Compound concentration 1000.0 nM
[12] = test system: Tyrosine-protein kinase ABL1 (Homo sapiens), P00519 [M351T]; details: Compound concentration 1000.0 nM
[13] = target: Cyclin-dependent kinase-like 2 (Homo sapiens) (UniProt Q92772); details: Compound concentration 1000.0 nM
[14] = target: Ribosomal protein S6 kinase alpha-1 (Homo sapiens) (UniProt Q15418); details: Compound concentration 1000.0 nM
[15] = target: Serine/threonine-protein kinase PAK 6 (Homo sapiens) (UniProt Q9NQU5); details: Compound concentration 1000.0 nM
[16] = target: Serine/threonine-protein kinase haspin (Homo sapiens) (UniProt Q8TF76); details: Compound concentration 1000.0 nM
[17] = target: Tyrosine-protein kinase ABL1 (Homo sapiens) (UniProt P00519); details: Compound concentration 1000.0 nM
[18] = target: Receptor-type tyrosine-protein kinase FLT3 (Homo sapiens) (UniProt P36888); details: Compound concentration 1000.0 nM
[19] = target: Mitogen-activated protein kinase kinase kinase 4 (Homo sapiens) (UniProt Q9Y6R4); details: Compound concentration 1000.0 nM
[20] = target: 5-hydroxytryptamine receptor 1D (Homo sapiens) (UniProt P28221); details: Compound concentration 10.0 uM
[21] = target: Serine/threonine-protein kinase B-raf (Homo sapiens) (UniProt P15056); details: Compound concentration 1000.0 nM
[22] = target: Myosin light chain kinase family member 4 (Homo sapiens) (UniProt Q86YV6); details: Compound concentration 1000.0 nM
[23] = target: Cyclin-dependent kinase 3 (Homo sapiens) (UniProt Q00526); details: Compound concentration 1000.0 nM
[24] = target: Ephrin type-A receptor 5 (Homo sapiens) (UniProt P54756); details: Compound concentration 1000.0 nM
[25] = target: Testis-specific serine/threonine-protein kinase 3 (Homo sapiens) (UniProt Q96PN8); details: Compound concentration 1000.0 nM
[26] = target: Leukocyte tyrosine kinase receptor (Homo sapiens) (UniProt P29376); details: Compound concentration 1000.0 nM
[27] = target: Tyrosine-protein kinase receptor UFO (Homo sapiens) (UniProt P30530); details: Compound concentration 1000.0 nM
[28] = target: Mitogen-activated protein kinase kinase kinase 10 (Homo sapiens) (UniProt Q02779); details: Compound concentration 1000.0 nM
[29] = target: Casein kinase I isoform alpha (Homo sapiens) (UniProt P48729); details: Compound concentration 1000.0 nM
[30] = target: Tyrosine-protein kinase receptor TYRO3 (Homo sapiens) (UniProt Q06418); details: Compound concentration 1000.0 nM
[31] = target: MAP/microtubule affinity-regulating kinase 4 (Homo sapiens) (UniProt Q96L34); details: Compound concentration 1000.0 nM
Rattus norvegicus = organism: Rattus norvegicus; details: Compound concentration 10.0 uM
[32] = target: Serine/threonine-protein kinase PLK2 (Homo sapiens) (UniProt Q9NYY3); details: Compound concentration 1000.0 nM
[33] = test system: Receptor-type tyrosine-protein kinase FLT3 (Homo sapiens), P36888 [R834Q]; details: Compound concentration 1000.0 nM
[34] = target: Cyclin-dependent kinase 11A (Homo sapiens) (UniProt Q9UQ88); details: Compound concentration 1000.0 nM
[35] = target: Serine/threonine-protein kinase WNK4 (Homo sapiens) (UniProt Q96J92); details: Compound concentration 1000.0 nM
[36] = target: Serine/threonine-protein kinase pim-2 (Homo sapiens) (UniProt Q9P1W9); details: Compound concentration 1000.0 nM
[37] = target: 5'-AMP-activated protein kinase catalytic subunit alpha-1 (Homo sapiens) (UniProt Q13131); details: Compound concentration 1000.0 nM
[38] = target: Mitogen-activated protein kinase kinase kinase kinase 2 (Homo sapiens) (UniProt Q12851); details: Compound concentration 1000.0 nM
[39] = target: D(1B) dopamine receptor (Homo sapiens) (UniProt P21918); details: Compound concentration 10.0 uM
[40] = target: Receptor-interacting serine/threonine-protein kinase 2 (Homo sapiens) (UniProt O43353); details: Compound concentration 1000.0 nM
[41] = target: Macrophage colony-stimulating factor 1 receptor (Homo sapiens) (UniProt P07333); details: Compound concentration 1000.0 nM
[42] = test system: Phosphatidylinositol 4,5-bisphosphate 3-kinase catalytic subunit alpha isoform (Homo sapiens), P42336 [E545K]; details: Compound concentration 1000.0 nM
[43] = target: Epithelial discoidin domain-containing receptor 1 (Homo sapiens) (UniProt Q08345); details: Compound concentration 1000.0 nM
[44] = target: Mitogen-activated protein kinase 4 (Homo sapiens) (UniProt P31152); details: Compound concentration 1000.0 nM

Tyrosine-protein kinase receptor TYRO3 (Homo sapiens), sequence (Q06418 whole entry): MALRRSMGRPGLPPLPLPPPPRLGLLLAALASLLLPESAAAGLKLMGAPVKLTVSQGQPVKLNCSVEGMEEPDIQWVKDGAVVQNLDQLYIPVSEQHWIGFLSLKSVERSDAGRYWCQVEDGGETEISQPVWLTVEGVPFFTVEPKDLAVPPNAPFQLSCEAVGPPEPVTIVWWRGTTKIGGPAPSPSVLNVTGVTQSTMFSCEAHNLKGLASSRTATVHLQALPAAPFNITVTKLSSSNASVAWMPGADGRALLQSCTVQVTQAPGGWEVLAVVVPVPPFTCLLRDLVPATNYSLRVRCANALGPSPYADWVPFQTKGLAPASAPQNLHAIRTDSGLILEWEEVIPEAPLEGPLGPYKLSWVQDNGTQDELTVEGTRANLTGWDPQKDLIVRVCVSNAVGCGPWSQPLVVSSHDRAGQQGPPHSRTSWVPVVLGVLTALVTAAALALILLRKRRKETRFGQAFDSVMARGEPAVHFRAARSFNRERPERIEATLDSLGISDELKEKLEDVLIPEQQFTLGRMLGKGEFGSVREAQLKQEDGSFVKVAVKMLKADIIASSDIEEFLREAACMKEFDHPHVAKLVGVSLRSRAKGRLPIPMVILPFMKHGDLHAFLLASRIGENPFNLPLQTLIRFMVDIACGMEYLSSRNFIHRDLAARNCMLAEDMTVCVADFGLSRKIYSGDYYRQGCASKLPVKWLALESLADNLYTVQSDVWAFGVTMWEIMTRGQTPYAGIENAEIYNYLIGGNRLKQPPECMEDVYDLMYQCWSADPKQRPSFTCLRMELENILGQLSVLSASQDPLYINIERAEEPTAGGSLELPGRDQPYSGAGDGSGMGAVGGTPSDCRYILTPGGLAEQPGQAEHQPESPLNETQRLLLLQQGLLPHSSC
Cyclin-dependent kinase-like 2 (Homo sapiens), sequence (Q92772 whole entry): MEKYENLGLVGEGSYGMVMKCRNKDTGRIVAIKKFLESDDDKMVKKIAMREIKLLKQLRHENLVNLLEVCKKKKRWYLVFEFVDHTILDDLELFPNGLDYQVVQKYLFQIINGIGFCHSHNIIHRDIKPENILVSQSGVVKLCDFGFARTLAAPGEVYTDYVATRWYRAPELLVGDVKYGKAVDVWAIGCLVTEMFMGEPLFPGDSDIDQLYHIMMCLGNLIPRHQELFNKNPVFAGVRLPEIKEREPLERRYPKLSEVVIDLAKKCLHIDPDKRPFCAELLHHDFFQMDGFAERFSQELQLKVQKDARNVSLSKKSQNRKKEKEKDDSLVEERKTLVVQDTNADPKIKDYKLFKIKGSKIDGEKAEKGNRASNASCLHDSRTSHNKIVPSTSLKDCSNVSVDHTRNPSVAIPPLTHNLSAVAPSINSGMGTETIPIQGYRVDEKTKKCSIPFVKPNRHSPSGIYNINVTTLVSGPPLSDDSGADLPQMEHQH
Tyrosine-protein kinase receptor UFO (Homo sapiens), sequence (P30530 whole entry): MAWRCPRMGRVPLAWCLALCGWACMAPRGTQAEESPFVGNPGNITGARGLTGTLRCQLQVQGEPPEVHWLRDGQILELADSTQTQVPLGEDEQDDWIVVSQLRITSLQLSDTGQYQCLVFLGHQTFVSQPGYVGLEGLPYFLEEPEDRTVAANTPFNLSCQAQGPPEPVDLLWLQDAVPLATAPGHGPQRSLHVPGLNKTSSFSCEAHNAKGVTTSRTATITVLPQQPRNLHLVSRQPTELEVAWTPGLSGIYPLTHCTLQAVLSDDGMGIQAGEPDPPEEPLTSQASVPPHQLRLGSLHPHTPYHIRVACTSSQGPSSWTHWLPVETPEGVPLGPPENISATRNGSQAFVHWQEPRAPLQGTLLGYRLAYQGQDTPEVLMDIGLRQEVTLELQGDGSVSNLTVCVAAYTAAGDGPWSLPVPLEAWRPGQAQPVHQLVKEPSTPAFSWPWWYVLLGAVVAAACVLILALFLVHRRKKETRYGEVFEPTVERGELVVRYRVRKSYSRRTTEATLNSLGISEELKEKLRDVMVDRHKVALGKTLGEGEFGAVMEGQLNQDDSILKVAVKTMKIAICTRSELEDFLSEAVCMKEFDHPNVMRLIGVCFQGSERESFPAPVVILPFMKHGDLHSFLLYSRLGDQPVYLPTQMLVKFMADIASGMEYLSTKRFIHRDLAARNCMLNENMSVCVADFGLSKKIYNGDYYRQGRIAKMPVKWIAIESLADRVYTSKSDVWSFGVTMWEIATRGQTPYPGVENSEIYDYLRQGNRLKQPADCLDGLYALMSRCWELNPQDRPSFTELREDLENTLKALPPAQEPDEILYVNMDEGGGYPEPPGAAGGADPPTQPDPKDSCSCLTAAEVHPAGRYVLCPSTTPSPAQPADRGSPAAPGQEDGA
Epithelial discoidin domain-containing receptor 1 (Homo sapiens), sequence (Q08345 whole entry, the tested form may be a part): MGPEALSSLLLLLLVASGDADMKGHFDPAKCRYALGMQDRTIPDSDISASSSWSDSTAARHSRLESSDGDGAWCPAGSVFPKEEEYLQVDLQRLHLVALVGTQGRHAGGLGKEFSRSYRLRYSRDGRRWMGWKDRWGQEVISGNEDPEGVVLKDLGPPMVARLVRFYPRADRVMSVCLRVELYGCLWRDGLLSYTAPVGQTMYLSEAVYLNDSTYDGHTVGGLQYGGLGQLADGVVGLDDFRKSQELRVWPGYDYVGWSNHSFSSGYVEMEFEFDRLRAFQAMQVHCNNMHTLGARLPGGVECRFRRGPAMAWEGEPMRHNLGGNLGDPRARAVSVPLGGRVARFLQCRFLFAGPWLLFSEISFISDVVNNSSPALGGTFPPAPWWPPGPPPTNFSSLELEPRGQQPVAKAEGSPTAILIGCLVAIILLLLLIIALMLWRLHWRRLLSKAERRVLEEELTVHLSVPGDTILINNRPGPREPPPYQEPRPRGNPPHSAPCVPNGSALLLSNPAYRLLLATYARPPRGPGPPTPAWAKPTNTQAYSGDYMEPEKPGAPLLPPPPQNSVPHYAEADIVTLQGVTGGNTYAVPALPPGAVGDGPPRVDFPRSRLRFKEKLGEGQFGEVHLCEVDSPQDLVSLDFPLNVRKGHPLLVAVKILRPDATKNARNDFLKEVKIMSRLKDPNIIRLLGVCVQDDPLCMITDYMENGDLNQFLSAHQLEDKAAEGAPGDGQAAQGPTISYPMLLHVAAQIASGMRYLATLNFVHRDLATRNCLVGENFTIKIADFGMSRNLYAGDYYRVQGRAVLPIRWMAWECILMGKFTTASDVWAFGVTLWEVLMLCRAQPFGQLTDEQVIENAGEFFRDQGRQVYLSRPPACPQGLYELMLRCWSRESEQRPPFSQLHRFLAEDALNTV
Cyclin-dependent kinase 3 (Homo sapiens), sequence (Q00526 whole entry, looked up): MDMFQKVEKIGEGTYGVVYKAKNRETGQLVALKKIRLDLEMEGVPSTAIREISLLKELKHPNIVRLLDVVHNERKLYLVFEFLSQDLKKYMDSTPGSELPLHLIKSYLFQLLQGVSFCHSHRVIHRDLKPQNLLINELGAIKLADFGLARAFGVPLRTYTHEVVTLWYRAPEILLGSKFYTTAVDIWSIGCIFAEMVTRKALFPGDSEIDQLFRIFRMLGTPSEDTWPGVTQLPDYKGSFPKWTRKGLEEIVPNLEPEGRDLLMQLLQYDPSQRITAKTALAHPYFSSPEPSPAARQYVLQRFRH
Bone morphogenetic protein receptor type-1B (Homo sapiens), sequence (O00238 whole entry): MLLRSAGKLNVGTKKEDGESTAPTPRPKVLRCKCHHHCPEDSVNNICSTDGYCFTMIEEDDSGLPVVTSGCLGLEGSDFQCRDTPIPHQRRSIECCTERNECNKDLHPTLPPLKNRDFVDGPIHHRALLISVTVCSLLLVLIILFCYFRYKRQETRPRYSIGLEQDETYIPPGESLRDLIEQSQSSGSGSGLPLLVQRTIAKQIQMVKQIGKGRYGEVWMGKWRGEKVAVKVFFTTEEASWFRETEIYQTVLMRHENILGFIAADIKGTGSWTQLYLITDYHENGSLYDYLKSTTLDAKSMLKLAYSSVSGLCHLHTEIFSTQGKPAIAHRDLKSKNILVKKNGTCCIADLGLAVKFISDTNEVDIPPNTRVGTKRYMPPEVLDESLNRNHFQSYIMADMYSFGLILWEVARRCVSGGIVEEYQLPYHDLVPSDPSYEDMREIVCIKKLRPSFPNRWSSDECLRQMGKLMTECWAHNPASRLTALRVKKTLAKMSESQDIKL
Myosin light chain kinase family member 4 (Homo sapiens), sequence (Q86YV6 whole entry): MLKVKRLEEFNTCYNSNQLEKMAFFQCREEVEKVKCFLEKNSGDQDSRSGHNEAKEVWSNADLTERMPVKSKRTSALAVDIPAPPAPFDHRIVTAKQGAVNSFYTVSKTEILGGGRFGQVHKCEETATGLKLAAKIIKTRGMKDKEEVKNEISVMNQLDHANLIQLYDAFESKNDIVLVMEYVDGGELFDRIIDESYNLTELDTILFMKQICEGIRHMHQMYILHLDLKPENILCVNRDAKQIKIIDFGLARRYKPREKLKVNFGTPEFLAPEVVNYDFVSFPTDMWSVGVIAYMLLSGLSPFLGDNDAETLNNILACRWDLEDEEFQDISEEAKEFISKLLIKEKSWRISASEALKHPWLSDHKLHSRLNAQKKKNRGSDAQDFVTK
Receptor-interacting serine/threonine-protein kinase 2 (Homo sapiens), sequence (O43353 whole entry): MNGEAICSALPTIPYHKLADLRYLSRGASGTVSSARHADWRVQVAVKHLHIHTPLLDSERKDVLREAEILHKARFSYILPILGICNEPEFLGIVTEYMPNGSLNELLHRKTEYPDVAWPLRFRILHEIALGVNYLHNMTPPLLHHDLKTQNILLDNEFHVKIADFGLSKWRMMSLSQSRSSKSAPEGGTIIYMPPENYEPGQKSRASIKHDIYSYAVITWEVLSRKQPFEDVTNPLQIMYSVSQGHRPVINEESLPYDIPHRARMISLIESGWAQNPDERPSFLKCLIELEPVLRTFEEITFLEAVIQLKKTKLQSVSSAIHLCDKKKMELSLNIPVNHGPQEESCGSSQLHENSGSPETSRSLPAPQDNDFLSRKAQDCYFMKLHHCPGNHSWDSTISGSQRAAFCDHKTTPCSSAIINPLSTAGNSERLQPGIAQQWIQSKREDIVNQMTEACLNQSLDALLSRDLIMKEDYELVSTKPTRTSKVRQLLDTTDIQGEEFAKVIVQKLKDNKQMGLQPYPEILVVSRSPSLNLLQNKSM

COc1cccc(CNC(=O)c2nc3scc(COCc4ccc(C(=O)O)cc4)c3c(=O)[nH]2)c1 [T-26c]
inactive: residual activity [1] 100% | residual activity [2] 100% | residual activity [3] 59.9% | residual activity [4] 91.9% | residual activity [5] 51.9% | residual activity [6] 64.5% | residual activity [7] 100% | residual activity [8] 89.4% | residual activity [9] 96.8% | residual activity [10] 100% | residual activity [11] 78.8% | residual activity [12] 84.4% | residual activity [13] 66.8% | residual activity [14] 100% | residual activity [15] 100% | residual activity [16] 92.5% | residual activity [17] 85% | residual activity [18] 85% | residual activity [19] 86.6% | inhibition [20] -1.39% | residual activity [21] 72.8% | residual activity [22] 100% | residual activity [23] 100% | residual activity [24] 98.5% | residual activity [25] 81.4% | residual activity [26] 70.6% | residual activity [27] 84.2% | residual activity [28] 100% | residual activity [29] 82.1% | residual activity [30] 100% | residual activity [31] 89.2% | inhibition (Rattus norvegicus) 3.29% | residual activity [32] 56.7% | residual activity [33] 77.9% | residual activity [34] 99.2% | residual activity [35] 100% | residual activity [36] 100% | residual activity [37] 70.3% | residual activity [38] 83% | inhibition [39] 11.9% | residual activity [40] 100% | residual activity [41] 100% | residual activity [42] 86.3% | residual activity [43] 100% | residual activity [44] 80%
